{
  "source": "PubChem BioAssay AID1963442",
  "about": "(Molecular Pharmacology Branch, DTP, NCI, 2024)",
  "test_system": "MPNST complex spheroid with HUVEC/MSC, growth, % test/control",
  "assay": "Anticancer human tumor MPNST cell line growth inhibition [Asc];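 note: compounds left on spheroids for seven days before reading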",
  "details": "for IC50: curve of first compound; for viability, T/C: stronger effect = lower value",
  "procedure,_shortened": "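Complex solid-tumor spheroids incorporating human endothelial and mesenchymal stem cells received single agents or combinations over half-log dilution ranges anchored to clinical Cmax.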",
  "data": [
    {"smiles": "C#Cc1c(F)ccc2cc(O)cc(-c3ncc4c(N5CC6CCC(C5)N6)nc(OCC56CCCN5CC(F)C6)nc4c3F)c12", "note": "(stereo not given) + Cc1c(S(C)(=O)=O)c(-c2cc(F)cc(N3CCN(c4ccc(NS(=O)(=O)c5ccc(NC(CCN6CCC(C(=O)OCCCP(=O)(O)O)CC6)CSc6ccccc6)c(S(=O)(=O)C(F)(F)F)c5)cc4)CC3)c2)c(-c2ccc(Cl)cc2)n1C(C)C", "values": [
      {"measurement": "IC50", "setting": "second compound 0.1 µM", "value": "> 10", "unit": "µM"},
      {"measurement": "IC50", "setting": "second compound 0.316 µM", "value": "> 10", "unit": "µM"},
      {"measurement": "IC50", "setting": "second compound 1 µM", "value": "> 10", "unit": "µM"},
      {"measurement": "IC50", "setting": "second compound 3.16 µM", "value": "> 10", "unit": "µM"},
      {"measurement": "IC50", "setting": "second compound 10 µM", "value": "> 10", "unit": "µM"},
      {"measurement": "viability, T/C", "setting": "second compound 0.1 µM, first compound 0.0316 µM", "value": 99.2, "unit": "%"},
      {"measurement": "viability, T/C", "setting": "second compound 0.1 µM, first compound 0.1 µM", "value": 104, "unit": "%"},
      {"measurement": "viability, T/C", "setting": "second compound 0.1 µM, first compound 0.316 µM", "value": 92.9, "unit": "%"},
      {"measurement": "viability, T/C", "setting": "second compound 0.1 µM, first compound 1 µM", "value": 103, "unit": "%"},
      {"measurement": "viability, T/C", "setting": "second compound 0.1 µM, first compound 3.16 µM", "value": 99.9, "unit": "%"},
      {"measurement": "viability, T/C", "setting": "second compound 0.1 µM, first compound 10 µM", "value": 101, "unit": "%"},
      {"measurement": "viability, T/C", "setting": "second compound 0.316 µM, first compound 0.0316 µM", "value": 93.4, "unit": "%"},
      {"measurement": "viability, T/C", "setting": "second compound 0.316 µM, first compound 0.1 µM", "value": 105, "unit": "%"},
      {"measurement": "viability, T/C", "setting": "second compound 0.316 µM, first compound 0.316 µM", "value": 110, "unit": "%"},
      {"measurement": "viability, T/C", "setting": "second compound 0.316 µM, first compound 1 µM", "value": 94.7, "unit": "%"},
      {"measurement": "viability, T/C", "setting": "second compound 0.316 µM, first compound 3.16 µM", "value": 91, "unit": "%"},
      {"measurement": "viability, T/C", "setting": "second compound 0.316 µM, first compound 10 µM", "value": 96.5, "unit": "%"},
      {"measurement": "viability, T/C", "setting": "second compound 1 µM, first compound 0.0316 µM", "value": 97, "unit": "%"},
      {"measurement": "viability, T/C", "setting": "second compound 1 µM, first compound 0.1 µM", "value": 99.2, "unit": "%"},
      {"measurement": "viability, T/C", "setting": "second compound 1 µM, first compound 0.316 µM", "value": 101, "unit": "%"},
      {"measurement": "viability, T/C", "setting": "second compound 1 µM, first compound 1 µM", "value": 95.4, "unit": "%"},
      {"measurement": "viability, T/C", "setting": "second compound 1 µM, first compound 3.16 µM", "value": 93.4, "unit": "%"},
      {"measurement": "viability, T/C", "setting": "second compound 1 µM, first compound 10 µM", "value": 77, "unit": "%"},
      {"measurement": "viability, T/C", "setting": "second compound 3.16 µM, first compound 0.0316 µM", "value": 80.5, "unit": "%"},
      {"measurement": "viability, T/C", "setting": "second compound 3.16 µM, first compound 0.1 µM", "value": 91.2, "unit": "%"},
      {"measurement": "viability, T/C", "setting": "second compound 3.16 µM, first compound 0.316 µM", "value": 117, "unit": "%"},
      {"measurement": "viability, T/C", "setting": "second compound 3.16 µM, first compound 1 µM", "value": 101, "unit": "%"},
      {"measurement": "viability, T/C", "setting": "second compound 3.16 µM, first compound 3.16 µM", "value": 78.2, "unit": "%"},
      {"measurement": "viability, T/C", "setting": "second compound 3.16 µM, first compound 10 µM", "value": 71.8, "unit": "%"},
      {"measurement": "viability, T/C", "setting": "second compound 10 µM, first compound 0.0316 µM", "value": 121, "unit": "%"},
      {"measurement": "viability, T/C", "setting": "second compound 10 µM, first compound 0.1 µM", "value": 135, "unit": "%"},
      {"measurement": "viability, T/C", "setting": "second compound 10 µM, first compound 0.316 µM", "value": 118, "unit": "%"},
      {"measurement": "viability, T/C", "setting": "second compound 10 µM, first compound 1 µM", "value": 158, "unit": "%"},
      {"measurement": "viability, T/C", "setting": "second compound 10 µM, first compound 3.16 µM", "value": 108, "unit": "%"},
      {"measurement": "viability, T/C", "setting": "second compound 10 µM, first compound 10 µM", "value": 124, "unit": "%"}
    ]},
    {"smiles": "Cc1nc(N2CCC3(CC2)COC(C)C3N)c(CO)nc1Sc1ccnc(N)c1Cl", "note": "(stereo not given) + Cc1c(S(C)(=O)=O)c(-c2cc(F)cc(N3CCN(c4ccc(NS(=O)(=O)c5ccc(NC(CCN6CCC(C(=O)OCCCP(=O)(O)O)CC6)CSc6ccccc6)c(S(=O)(=O)C(F)(F)F)c5)cc4)CC3)c2)c(-c2ccc(Cl)cc2)n1C(C)C", "values": [
      {"measurement": "IC50", "setting": "second compound 0.1 µM", "value": "> 3", "unit": "µM"},
      {"measurement": "IC50", "setting": "second compound 0.316 µM", "value": "> 3", "unit": "µM"},
      {"measurement": "IC50", "setting": "second compound 1 µM", "value": "> 3", "unit": "µM"},
      {"measurement": "IC50", "setting": "second compound 3.16 µM", "value": "> 3", "unit": "µM"},
      {"measurement": "IC50", "setting": "second compound 10 µM", "value": "> 3", "unit": "µM"},
      {"measurement": "viability, T/C", "setting": "second compound 0.1 µM, first compound 0.00949 µM", "value": 117, "unit": "%"},
      {"measurement": "viability, T/C", "setting": "second compound 0.1 µM, first compound 0.03 µM", "value": 152, "unit": "%"},
      {"measurement": "viability, T/C", "setting": "second compound 0.1 µM, first compound 0.0949 µM", "value": 143, "unit": "%"},
      {"measurement": "viability, T/C", "setting": "second compound 0.1 µM, first compound 0.3 µM", "value": 121, "unit": "%"},
      {"measurement": "viability, T/C", "setting": "second compound 0.1 µM, first compound 0.949 µM", "value": 104, "unit": "%"},
      {"measurement": "viability, T/C", "setting": "second compound 0.1 µM, first compound 3 µM", "value": 112, "unit": "%"},
      {"measurement": "viability, T/C", "setting": "second compound 0.316 µM, first compound 0.00949 µM", "value": 130, "unit": "%"},
      {"measurement": "viability, T/C", "setting": "second compound 0.316 µM, first compound 0.03 µM", "value": 136, "unit": "%"},
      {"measurement": "viability, T/C", "setting": "second compound 0.316 µM, first compound 0.0949 µM", "value": 157, "unit": "%"},
      {"measurement": "viability, T/C", "setting": "second compound 0.316 µM, first compound 0.3 µM", "value": 125, "unit": "%"},
      {"measurement": "viability, T/C", "setting": "second compound 0.316 µM, first compound 0.949 µM", "value": 117, "unit": "%"},
      {"measurement": "viability, T/C", "setting": "second compound 0.316 µM, first compound 3 µM", "value": 79.5, "unit": "%"},
      {"measurement": "viability, T/C", "setting": "second compound 1 µM, first compound 0.00949 µM", "value": 121, "unit": "%"},
      {"measurement": "viability, T/C", "setting": "second compound 1 µM, first compound 0.03 µM", "value": 148, "unit": "%"},
      {"measurement": "viability, T/C", "setting": "second compound 1 µM, first compound 0.0949 µM", "value": 126, "unit": "%"},
      {"measurement": "viability, T/C", "setting": "second compound 1 µM, first compound 0.3 µM", "value": 135, "unit": "%"},
      {"measurement": "viability, T/C", "setting": "second compound 1 µM, first compound 0.949 µM", "value": 96.2, "unit": "%"},
      {"measurement": "viability, T/C", "setting": "second compound 1 µM, first compound 3 µM", "value": 93.6, "unit": "%"},
      {"measurement": "viability, T/C", "setting": "second compound 3.16 µM, first compound 0.00949 µM", "value": 136, "unit": "%"},
      {"measurement": "viability, T/C", "setting": "second compound 3.16 µM, first compound 0.03 µM", "value": 141, "unit": "%"},
      {"measurement": "viability, T/C", "setting": "second compound 3.16 µM, first compound 0.0949 µM", "value": 164, "unit": "%"},
      {"measurement": "viability, T/C", "setting": "second compound 3.16 µM, first compound 0.3 µM", "value": 108, "unit": "%"},
      {"measurement": "viability, T/C", "setting": "second compound 3.16 µM, first compound 0.949 µM", "value": 117, "unit": "%"},
      {"measurement": "viability, T/C", "setting": "second compound 3.16 µM, first compound 3 µM", "value": 88.3, "unit": "%"},
      {"measurement": "viability, T/C", "setting": "second compound 10 µM, first compound 0.00949 µM", "value": 175, "unit": "%"},
      {"measurement": "viability, T/C", "setting": "second compound 10 µM, first compound 0.03 µM", "value": 159, "unit": "%"},
      {"measurement": "viability, T/C", "setting": "second compound 10 µM, first compound 0.0949 µM", "value": 153, "unit": "%"},
      {"measurement": "viability, T/C", "setting": "second compound 10 µM, first compound 0.3 µM", "value": 108, "unit": "%"},
      {"measurement": "viability, T/C", "setting": "second compound 10 µM, first compound 0.949 µM", "value": 125, "unit": "%"},
      {"measurement": "viability, T/C", "setting": "second compound 10 µM, first compound 3 µM", "value": 94.4, "unit": "%"}
    ]}
  ]
}
